Measured values taken from patent publication US20250034167A1, “HETEROCYCLIC COMPOUNDS AND METHODS OF USE” (AMGEN INC., priority 2021, published 2025).

What follows are compounds tested on Phosphorylation of ERK1/2 in AsPC-1 cells (assay: Phospho-ERK1/2 MSD Assay). Conditions: Homo sapiens, ASPC1, 2 h, read-out: 2 h p-ERK (AsPC-1 cells), IC50, AsPC-1 cells, 2 h compound treatment.
Type: cell-based
Method: Sixteen hours prior to compound treatment, AsPC-1 cells were seeded in 96-well cell culture plates at a density of 25,000 cells/well and incubated at 37° C., 5% CO2. A compound dose-response titration was diluted in growth media, added to appropriate wells of a cell culture plate, and then incubated at 37° C., 5% CO2 for 2 hours.

Row | SMILES | IC50
1 | CCc1c(F)ccc2cc(O)cc(-c3ncc4c(N5CCCC(OC)C5)nc(OC[C@@]56CCCN5C[C@H](F)C6)nc4c3F)c12 (stereo partly drawn) [Example 15, 5-Ethyl-6-fluoro-4-(8-fluoro-2-(((2R,7aS)-2-fluorotetrahydro-1H-pyrrolizin-7a(5H)-yl)methoxy)-4-(3-methoxypiperidin-1-yl)pyrido[4,3-d]pyrimidin-7-yl)naphthalen-2-ol] | 1480 nM
2 | CCc1c(F)ccc2cc(O)cc(-c3ncc4c(N5C[C@H](O)CC[C@H]5C)nc(OC[C@@]56CCCN5C[C@H](F)C6)nc4c3F)c12 [Example 36, (3R,6R)-1-(7-(8-Ethyl-7-fluoro-3-hydroxynaphthalen-1-yl)-8-fluoro-2-(((2R,7aS)-2-fluorotetrahydro-1H-pyrrolizin-7a(5H)-yl)methoxy)pyrido[4,3-d]pyrimidin-4-yl)-6-methyl-piperidin-3-ol] | 344 nM
3 | CCc1c(F)ccc2cc(O)cc(-c3ncc4c(N5CCC[C@](C)(N)C5)nc(OC[C@@]56CCCN5C[C@H](F)C6)nc4c3F)c12 [Example 45, 4-(4-((S)-3-Amino-3-methylpiperidin-1-yl)-8-fluoro-2-(((2R,7aS)-2-fluorotetrahydro-1H-pyrrolizin-7a(5H)-yl)methoxy)pyrido[4,3-d]pyrimidin-7-yl)-5-ethyl-6-fluoronaphthalen-2-ol] | 2960 nM
4 | CCc1c(F)ccc2cccc(-c3ncc4c(N5CCC[C@@](C)(O)C5)nc(OC[C@@]56CCCN5C[C@H](F)C6)nc4c3F)c12 [Example 48, (R)-1-(7-(8-Ethyl-7-fluoronaphthalen-1-yl)-8-fluoro-2-(((2R,7aS)-2-fluorotetrahydro-1H-pyrrolizin-7a(5H)-yl)methoxy)pyrido[4,3-d]pyrimidin-4-yl)-3-methylpiperidin-3-ol] | 341 nM

The remaining lines, values ahead:

Row | IC50 | SMILES
5 | 2860 nM | CCc1c(F)ccc2cc(O)cc(-c3ncc4c(N5CCC(O)C5)nc(OC[C@@]56CCCN5C[C@H](F)C6)nc4c3F)c12 (stereo partly drawn) [Example 16, 1-(7-(8-Ethyl-7-fluoro-3-hydroxynaphthalen-1-yl)-8-fluoro-2-(((2R,7aS)-2-fluorotetrahydro-1H-pyrrolizin-7a(5H)-yl)methoxy)pyrido[4,3-d]pyrimidin-4-yl)pyrrolidin-3-ol]
6 | 222 nM | CCc1c(F)ccc2cc(O)cc(-c3ncc4c(N5CC[C@H](F)[C@H](O)C5)nc(OC[C@@]56CCCN5C[C@H](F)C6)nc4c3F)c12 [Example 47, (3R,4S)-1-(7-(8-Ethyl-7-fluoro-3-hydroxynaphthalen-1-yl)-8-fluoro-2-(((2R,7aS)-2-fluorotetrahydro-1H-pyrrolizin-7a(5H)-yl)methoxy)pyrido[4,3-d]pyrimidin-4-yl)-4-fluoropiperidin-3-ol]
7 | 33 nM | C[C@@]1(O)CCCN(c2nc(OC[C@@]34CCCN3C[C@H](F)C4)nc3c(F)c(-c4cc(O)cc5ccc(F)c(F)c45)ncc23)C1 [Example 59, (R)-1-(7-(7,8-Difluoro-3-hydroxynaphthalen-1-yl)-8-fluoro-2-(((2R,7aS)-2-fluorotetrahydro-1H-pyrrolizin-7a(5H)-yl)methoxy)pyrido[4,3-d]pyrimidin-4-yl)-3-methylpiperidin-3-ol]

Same assay, conditions: Homo sapiens, ASPC1, read-out: 2 h p-ERK (AsPC-1 cells), IC50; AsPC-1 cells, 2 h compound treatment

Row | SMILES | IC50
8 | CCc1c(F)ccc2cc(O)cc(-c3ncc4c(N5CCC[C@@](C)(O)C5)nc(OC[C@@]56CCCN5C[C@H](F)C6)nc4c3F)c12 [Example 38, (R)-1-(7-(8-ethyl-7-fluoro-3-hydroxynaphthalen-1-yl)-8-fluoro-2-(((2R,7aS)-2-fluorotetrahydro-1H-pyrrolizin-7a(5H)-yl)methoxy)pyrido[4,3-d]pyrimidin-4-yl)-3-methyl-piperidin-3-ol] | 5 nM
9 | CCc1c(F)ccc2cc(O)cc(-c3ncc4c(N5CCC[C@@](C)(O)C5)nc(OC[C@]56CCCN5C[C@H](F)C6)nc4c3F)c12 [Example 53, (R)-1-(7-(8-ethyl-7-fluoro-3-hydroxynaphthalen-1-yl)-8-fluoro-2-(((2R,7aR)-2-fluorotetrahydro-1H-pyrrolizin-7a(5H)-yl)methoxy)pyrido[4,3-d]pyrimidin-4-yl)-3-methylpiperidin-3-ol] | 13 nM
